In ChEMBL document CHEMBL3507680, “University of Dundee, Gates Library screen for HepG2 cell viability”:

Experiment: Human HepG2 cell viability assay in 384 well format
Type: toxicity, cell-based
Design: dose 125 nL, time 70.5 hour; cytotoxicity at 70.5 h: concentration not given beside the values
Conditions: HepG2 cells, read-out: Inhibition

SMILES | cytotoxicity at 70.5 h
CN1C[C@@H](F)[C@@H](OCc2nc3ccc(C#N)cc3[nH]2)C1 | -2.32%
CC(C)N1CCC(CC(=O)NCc2cc(O)ncn2)CC1 | -2.08%
CCc1nnc2ccc(NCC3(O)CCOCC3)nn12 | -7.18%
CC(CCn1cccn1)N1CCC(n2cc(C(C)(C)N)nn2)CC1 (stereo unspecified) | 1.2%
CCOCCCNc1nc(O)cc(C2CC(=O)N(C)C2)n1 (stereo unspecified) | 24.8%
O=C(O)c1ccccc1-n1cc(CN2CCC(c3cc[nH]n3)C2)cn1 (stereo unspecified) | -2.77%
Cn1ccnc1CNC(=O)N1CCCC(Cc2nccn2C)C1 (stereo unspecified) | 2.69%
O=C(Cc1ccc2c(c1)OCO2)N1CCN(c2ccncc2)CC1 | -9.91%
CCCOc1ccc(Cl)cc1NC(=O)NCCC(=O)N(C)C | 4.12%
Cc1cc(O)c(OCC(=O)Nc2nccs2)cn1 | -21.7%
Cc1cnn(CCNCC(O)c2ccc(F)c(F)c2)c1 (stereo unspecified) | 3.17%
CSCCCN1CCc2nc(N(C)C)nc(N3CCC(O)CC3)c2C1 | -6.06%
Cc1ccc(NC2CCN(C(=O)Cc3cccc(F)c3)CC2)nn1 | -4.83%
CCN1CCC(CNC(=O)Nc2cnn(CC(N)=O)c2)C1 (stereo unspecified) | -8.69%
CC(C)c1nnc(CCC(=O)N2CCOC(c3cnccn3)C2)o1 (stereo unspecified) | -5.45%
COc1nn(C)cc1C(=O)N1CCC(c2nnc(C(C)C)o2)CC1 | -4.14%
Cc1n[nH]cc1CNC1(c2ccc(F)cc2)CCCC1 | -7.33%
Cc1cc(NC(=O)C(C)N2CCN(c3ccc(C#N)cc3F)CC2)no1 (stereo unspecified) | -11.7%
NC(=O)[C@@H]1Cc2ccccc2CN1CCC(=O)N1CCOCC1 | -5.31%
Cc1ccc(C(C)N(C)CCS(=O)(=O)CCC(N)=O)cc1 (stereo unspecified) | -6.4%
CNC(=O)C1(c2cnccn2)CCCN1C(=O)c1c(F)cccc1F (stereo unspecified) | 18.1%

SMILES | cytotoxicity at 70.5 h
CCOC1(C)C(=O)c2ccccc2N1Nc1ccccc1C(=O)CC (stereo unspecified) | -14.4%
CC(C)c1nc(/C=C/c2cnn(-c3ccccc3)c2)ncc1C(=O)O | -1.23%
Cc1ccsc1-c1nnc(SCC(=O)O)n1C(C)c1ccccc1 (stereo unspecified) | -5.54%
Cc1cccc(S(=O)(=O)N2Cc3c(CN(C)C)nn(C)c3C2)c1 | 2.96%
CS(=O)(=O)Cc1noc(CN(Cc2ccco2)c2ccccc2)n1 | -5.15%
O=C(c1cccn1Cc1cccs1)N1CCC(C(=O)N2CCCC2)CC1 | -5.45%
Cc1cc(C)n(CC2CN(CCOc3ccc(C#N)cc3)CCO2)n1 (stereo unspecified) | -4.48%
COCCCN1CC2(CCN(Cc3ncc[nH]3)CC2)CC1=O | -4.09%
CC(=O)N1CC2(CCN(c3ccc4ccccc4n3)CC2)CC1C(=O)O (stereo unspecified) | 4.97%
NC(=O)C1CCN(CCc2ccc(NCc3ccsc3)cc2)CC1 | -11.9%
NC(=O)C1CCN(C(=O)NCc2cccnc2OCC(F)(F)F)C1 (stereo unspecified) | -1.73%
CC(c1nc(C(C)(C)C)no1)N1CCN(Cc2ccc(C#N)cc2)CC1 (stereo unspecified) | -1.19%
O=C(NC1CC1)c1cc2c(nc1O)CC(c1cccs1)CC2=O (stereo unspecified) | -11.9%
OCCN1CC2(CCN(CC3CC3)CC2)c2ccccc21 | 4.7%
O=C(NCc1cnc2n1CCN(CC1CCOCC1)C2)c1ccno1 | 31.3%
Cc1nc(CN2CC[C@H]3[C@H]2CCN3c2ncccn2)cs1 | -5.71%
CN(Cc1ccn[nH]1)Cc1c[nH]nc1-c1ccc(F)cc1 | -3.15%
Cc1csc(CN(C)C(=O)Nc2cc(F)cc(N3CCCC3)c2)n1 | -11.9%
Cn1cc(C(C)(O)CNC(=O)c2ccc(Br)s2)cn1 (stereo unspecified) | 48.4%
CCOC(=O)C1(Cc2cccc(OC)c2)CCCN(Cc2ncc[nH]2)C1 (stereo unspecified) | 22%
O=C(c1cccnc1)N1CCOCC2(CCN(c3ncccn3)C2)C1 (stereo unspecified) | -1.45%

SMILES | cytotoxicity at 70.5 h
COc1cccc(CNCc2c(C)nc3sc(C)cn23)c1OC | -1.69%
O=C(Cn1ccc2ccccc21)NC[C@@H]1CCCN2CCCC[C@H]12 | -10.1%
COCCS(=O)(=O)c1ncc(CN(C)C)n1Cc1ccccc1 | 4.62%
CC(C)COCCC(=O)NCc1cn2cc(Br)ccc2n1 | 18.2%
CCc1nnc2n1CCN(Cc1ncc(-c3ccc(Cl)cc3)o1)C2 | -7.58%
Cc1ccc(CN2C[C@@H]3CCCO[C@@H]3[C@H](N(C)Cc3ccco3)C2)s1 | -11%
O=C1CC[C@H]2[C@H](CCN2C(=O)C2CCCO2)N1Cc1ccncc1 (stereo partly specified) | 7.56%
CCOCC(=O)N1C[C@@H]2COC[C@]2(c2nc(C)no2)C1 | -7.6%
CC(O)c1cn(Cc2ccc(Cl)cc2Cl)nn1 (stereo unspecified) | -7.31%
COCC(=O)N1CCOC(c2cccc(-c3cncnc3)n2)C1 (stereo unspecified) | -5.56%
Cc1ccccc1C1(CNC(=O)CCN2C(=O)CCC2=O)CC1 | -12.8%
COCCN(Cc1ccco1)Cc1nc(-c2ccsc2)no1 | 11.1%
Cc1nc(CN2CCOC(CN(C)c3cccnn3)C2)cs1 (stereo unspecified) | -12.9%
CC(C)c1cc(C(=O)N2CCCC(n3cncn3)C2)n[nH]1 (stereo unspecified) | 6.33%
CC1(C)CC(N2CCN(C3CCCC3)C(CCO)C2)CC(C)(C)C1 (stereo unspecified) | -8.65%
CCC(CO)N(Cc1ccccn1)C(=O)c1ccc(CSC)o1 (stereo unspecified) | -0.517%
Cc1ccc(C(=O)N2CC[C@H](N3CCOCC3)[C@H](CCCO)C2)cc1O | -8.22%
CN(C)c1nc(N)nc(CSCCC(=O)Nc2cccc(Cl)c2)n1 | 19.2%
Cc1nn(-c2ccc(C(=O)O)cc2)c2c1C(C(F)(F)F)SCC(=O)N2 (stereo unspecified) | -5.65%
O=C(CN1CCOc2ccccc2C1)NCc1cc2n(n1)CCCNC2 | -2.45%
CC(C)N1CCc2c(C(=O)N3CCOCC3)nn(C)c2C1 | 0.371%

SMILES | cytotoxicity at 70.5 h
CN1CCC(C)(CN(C)Cc2ccc(CCC(C)(C)O)cc2)C1 (stereo unspecified) | -6.89%
Cc1c(CN2CCCC(C(=O)Nc3ccccc3)C2)cc(C#N)n1C (stereo unspecified) | -2.58%
O=C(NCc1cc[nH]n1)N1CCCCC(N2CCCC2)C1 (stereo unspecified) | -0.0102%
O=C(c1cccc(F)c1)N1CCCN(Cc2cscn2)CC1 | 21.5%
CCc1nc(NS(=O)(=O)c2cccc(F)c2C)no1 | 7%
Cc1ccc(C(=O)N2CC[C@@H]3CN(C4CCOCC4)CCO[C@@H]3C2)o1 | -7.78%
CCC[C@H]1CN(CCS(C)(=O)=O)C[C@@H]1NC(=O)c1cc[nH]n1 | -16%
Cc1ccc(C(=O)N2CCSCC2)cc1NC(=O)NCC1CCC1 | -7.96%
Cc1c(NC(=O)NC2CN3CCC2CC3)cccc1C(=O)N1CCCC1 (stereo unspecified) | 37.5%
Cc1ccc(CCC(=O)N2CCn3c(nnc3C(C)C)C2)cc1Cl | 24.9%
CC(C)N1CCC(CC(=O)NC(C(=O)O)c2cccc(F)c2)CC1 (stereo unspecified) | -5.14%
Cn1cc(N2CC3(CCN(S(=O)(=O)C4CC4)C3)CC2=O)cn1 (stereo unspecified) | -1.83%
O=C(NCC1(O)CCOC1)NCC1(c2ccccc2Cl)CC1 (stereo unspecified) | -2.47%
O=C(c1cccnc1Oc1ccc(Cl)cc1)N1CC[C@@H](O)C1 | 24.9%
COC(=O)CC(c1cnn(C)c1)c1oc(C)cc(=O)c1O (stereo unspecified) | 7.5%
CC(=O)N1CCc2c(nc(N(C)C)nc2NCCC2CCCCO2)C1 (stereo unspecified) | -5.03%
O=C(NCc1cccs1)C1CNCC12CCOCC2 (stereo unspecified) | 0.759%
Cc1cc(CN2CCC(CNC(=O)c3nccc4ccccc34)C2)[nH]n1 (stereo unspecified) | 9.66%
